Experimental data as given in PMC6414696 (mBio, 2019).
Values after ≈ are worked out from the molar mass of the structure shown. Read-outs that look alike come from different tables or passages of the source.

Legend:
[1] = system: A. baumannii clinical isolates; assay: microbe, parasite or virus in culture; assay type: cell-based, Acinetobacter baumannii; details: for MIC: Acinetobacter baumannii
[2] = system: A. baumannii (ATCC 17978); assay type: cell-based, Acinetobacter baumannii; details: ETX2514 at 4 mg/liter in combination
A. nosocomialis (M2) = assay type: cell-based, Acinetobacter nosocomialis; details: ETX2514 at 4 mg/liter in combination
A. baumannii ARC5955 [3] = assay: Neutropenic murine thigh infection model; assay type: in vivo; details: thigh tissue, CD-1 mice, 24 h after initiation of therapy, 75 mg/kg SC/q3h; for Change in log10 CFU/g: 75 mg/kg
OXA-66 β-lactamase = OXA-66 β-lactamase (Acinetobacter baumannii, UniProt Q58XD2); assay: β-Lactamase steady-state kinetic analysis, OXA-66; assay type: biochemical, A. baumannii; details: OXA-66; data not shown
A. baumannii isolates = details: panel of A. baumannii isolates in a previous study; cited from earlier work
A. baumannii ARC5955 [4] = details: A. baumannii ARC5955 carrying blaTEM-1, blaADC-82, blaOXA-23, blaOXA-66; cited from earlier work

OXA-66 β-lactamase, sequence (Q58XD2 entry or part of it): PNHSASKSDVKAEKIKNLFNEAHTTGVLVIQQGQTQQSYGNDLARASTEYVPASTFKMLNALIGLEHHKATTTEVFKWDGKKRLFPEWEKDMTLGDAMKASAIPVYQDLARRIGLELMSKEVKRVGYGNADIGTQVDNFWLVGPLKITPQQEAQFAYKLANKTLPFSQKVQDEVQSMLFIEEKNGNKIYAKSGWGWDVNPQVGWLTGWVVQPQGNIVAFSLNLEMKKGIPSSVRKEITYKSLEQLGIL

CC1(C)[C@H](C(=O)O)N2C(=O)C[C@H]2S1(=O)=O [Sulbactam]
MIC90 ([1]; 72 WRAMC A. baumannii isolates, ETX2514 at 4 mg/liter in combination): 32 µg/mL
isolates resistant (MIC ≥ 16 mg/liter) ([1]; 72 WRAMC isolates (34/72)): 47%
MIC ([1]; strain AB001, ETX2514 at 4 mg/liter in combination): 16 µg/mL
MIC ([1]; strain AB002, ETX2514 at 4 mg/liter in combination): 8 µg/mL
MIC ([1]; strain AB003, ETX2514 at 4 mg/liter in combination): 8 µg/mL
MIC ([1]; strain AB004, ETX2514 at 4 mg/liter in combination): 4 µg/mL
MIC ([1]; strain AB005, ETX2514 at 4 mg/liter in combination): 4 µg/mL
MIC ([1]; strain AB006, ETX2514 at 4 mg/liter in combination): 4 µg/mL
MIC ([1]; strain AB007, ETX2514 at 4 mg/liter in combination): 4 µg/mL
MIC ([1]; strain AB008, ETX2514 at 4 mg/liter in combination): 4 µg/mL
MIC ([1]; strain AB009, ETX2514 at 4 mg/liter in combination): 4 µg/mL
MIC ([1]; strain AB010, ETX2514 at 4 mg/liter in combination): 4 µg/mL
MIC ([1]; strain AB011, ETX2514 at 4 mg/liter in combination): 8 µg/mL
MIC ([1]; strain AB012, ETX2514 at 4 mg/liter in combination): 4 µg/mL
MIC ([1]; strain AB013, ETX2514 at 4 mg/liter in combination): 4 µg/mL
MIC ([1]; strain AB014, ETX2514 at 4 mg/liter in combination): 4 µg/mL
MIC ([1]; strain AB015, ETX2514 at 4 mg/liter in combination): 4 µg/mL
MIC ([1]; strain AB016, ETX2514 at 4 mg/liter in combination): 4 µg/mL
MIC ([1]; strain AB017, ETX2514 at 4 mg/liter in combination): 32 µg/mL
MIC ([1]; strain AB018, ETX2514 at 4 mg/liter in combination): 64 µg/mL
MIC ([1]; strain AB019, ETX2514 at 4 mg/liter in combination): 16 µg/mL
MIC ([1]; strain AB020, ETX2514 at 4 mg/liter in combination): 16 µg/mL
MIC ([1]; strain AB021, ETX2514 at 4 mg/liter in combination): 16 µg/mL
MIC ([1]; strain AB022, ETX2514 at 4 mg/liter in combination): 16 µg/mL
MIC ([1]; strain AB023, ETX2514 at 4 mg/liter in combination): 16 µg/mL
MIC ([1]; strain AB024, ETX2514 at 4 mg/liter in combination): 16 µg/mL
MIC ([1]; strain AB025, ETX2514 at 4 mg/liter in combination): 16 µg/mL
MIC ([1]; strain AB026, ETX2514 at 4 mg/liter in combination): 16 µg/mL
MIC ([1]; strain AB027, ETX2514 at 4 mg/liter in combination): 16 µg/mL
MIC ([1]; strain AB028, ETX2514 at 4 mg/liter in combination): 16 µg/mL
MIC ([1]; strain AB029, ETX2514 at 4 mg/liter in combination): 16 µg/mL
MIC ([1]; strain AB030, ETX2514 at 4 mg/liter in combination): 16 µg/mL
MIC ([1]; strain AB031, ETX2514 at 4 mg/liter in combination): 16 µg/mL
MIC ([1]; strain AB032, ETX2514 at 4 mg/liter in combination): 16 µg/mL
MIC ([1]; strain AB033, ETX2514 at 4 mg/liter in combination): 64 µg/mL
MIC ([1]; strain AB034, ETX2514 at 4 mg/liter in combination): 16 µg/mL
MIC ([1]; strain AB035, ETX2514 at 4 mg/liter in combination): 16 µg/mL
MIC ([1]; strain AB036, ETX2514 at 4 mg/liter in combination): 16 µg/mL
MIC ([1]; strain AB037, ETX2514 at 4 mg/liter in combination): 64 µg/mL
MIC ([1]; strain AB038, ETX2514 at 4 mg/liter in combination): 16 µg/mL
MIC ([1]; strain AB039, ETX2514 at 4 mg/liter in combination): 4 µg/mL
MIC ([1]; strain AB040, ETX2514 at 4 mg/liter in combination): 32 µg/mL
MIC ([1]; strain AB041, ETX2514 at 4 mg/liter in combination): 16 µg/mL
MIC ([1]; strain AB042, ETX2514 at 4 mg/liter in combination): 4 µg/mL
MIC ([1]; strain AB043, ETX2514 at 4 mg/liter in combination): 4 µg/mL
MIC ([1]; strain AB044, ETX2514 at 4 mg/liter in combination): 4 µg/mL
MIC ([1]; strain AB045, ETX2514 at 4 mg/liter in combination): 2 µg/mL
MIC ([1]; strain AB046, ETX2514 at 4 mg/liter in combination): 4 µg/mL
MIC ([1]; strain AB047, ETX2514 at 4 mg/liter in combination): 4 µg/mL
MIC ([1]; strain AB048, ETX2514 at 4 mg/liter in combination): 4 µg/mL
MIC ([1]; strain AB049, ETX2514 at 4 mg/liter in combination): 4 µg/mL
MIC ([1]; strain AB050, ETX2514 at 4 mg/liter in combination): 4 µg/mL
MIC ([1]; strain AB051, ETX2514 at 4 mg/liter in combination): 2 µg/mL
MIC ([1]; strain AB052, ETX2514 at 4 mg/liter in combination): 64 µg/mL
MIC ([1]; strain AB053, ETX2514 at 4 mg/liter in combination): 32 µg/mL
MIC ([1]; strain AB054, ETX2514 at 4 mg/liter in combination): 64 µg/mL
MIC ([1]; strain AB055, ETX2514 at 4 mg/liter in combination): 16 µg/mL
MIC ([1]; strain AB056, ETX2514 at 4 mg/liter in combination): 8 µg/mL
MIC ([1]; strain AB057, ETX2514 at 4 mg/liter in combination): 16 µg/mL
MIC ([1]; strain AB058, ETX2514 at 4 mg/liter in combination): 32 µg/mL
MIC ([1]; strain AB059, ETX2514 at 4 mg/liter in combination): 32 µg/mL
MIC ([1]; strain AB060, ETX2514 at 4 mg/liter in combination): 8 µg/mL
MIC ([1]; strain AB061, ETX2514 at 4 mg/liter in combination): 8 µg/mL
MIC ([1]; strain AB062, ETX2514 at 4 mg/liter in combination): 8 µg/mL
MIC ([1]; strain AB063, ETX2514 at 4 mg/liter in combination): 32 µg/mL
MIC ([1]; strain AB064, ETX2514 at 4 mg/liter in combination): 8 µg/mL
MIC ([1]; strain AB065, ETX2514 at 4 mg/liter in combination): 8 µg/mL
MIC ([1]; strain AB066, ETX2514 at 4 mg/liter in combination): 4 µg/mL
MIC ([1]; strain AB067, ETX2514 at 4 mg/liter in combination): 4 µg/mL
MIC ([1]; strain AB068, ETX2514 at 4 mg/liter in combination): 4 µg/mL
MIC ([1]; strain AB069, ETX2514 at 4 mg/liter in combination): 4 µg/mL
MIC ([1]; strain AB070, ETX2514 at 4 mg/liter in combination): 32 µg/mL
MIC ([1]; strain AB071, ETX2514 at 4 mg/liter in combination): 8 µg/mL
MIC ([1]; strain AB072, ETX2514 at 4 mg/liter in combination): 4 µg/mL
MIC ([1]; strain CCF 1MR, carbapenem resistant, ETX2514 at 4 mg/liter in combination): 32 µg/mL
MIC ([1]; strain CCF 2MR, carbapenem resistant, ETX2514 at 4 mg/liter in combination): 16 µg/mL
MIC ([1]; strain CCF 3MR, carbapenem resistant, ETX2514 at 4 mg/liter in combination): 4 µg/mL
MIC ([1]; strain CCF 4MR, carbapenem resistant, ETX2514 at 4 mg/liter in combination): 16 µg/mL
MIC ([1]; strain CCF 5MR, carbapenem resistant, ETX2514 at 4 mg/liter in combination): 16 µg/mL
MIC ([1]; strain CCF 6MR, carbapenem resistant, ETX2514 at 4 mg/liter in combination): 16 µg/mL
MIC ([1]; strain CCF 7MR, carbapenem resistant, ETX2514 at 4 mg/liter in combination): 32 µg/mL
MIC ([1]; strain CCF 8MR, carbapenem resistant, ETX2514 at 4 mg/liter in combination): 8 µg/mL
MIC ([1]; strain UH AB202, carbapenem resistant, ETX2514 at 4 mg/liter in combination): 16 µg/mL
MIC ([1]; strain UH AB461, carbapenem resistant, ETX2514 at 4 mg/liter in combination): 8 µg/mL
MIC ([1]; strain UH AB477, carbapenem resistant, ETX2514 at 4 mg/liter in combination): 16 µg/mL
MIC ([1]; strain UH AB487, carbapenem resistant, ETX2514 at 4 mg/liter in combination): 16 µg/mL
MIC ([1]; strain UH AB489, carbapenem resistant, ETX2514 at 4 mg/liter in combination): 16 µg/mL
MIC ([1]; strain UH AB490, carbapenem resistant, ETX2514 at 4 mg/liter in combination): 16 µg/mL
MIC ([1]; strain UH AB491, carbapenem resistant, ETX2514 at 4 mg/liter in combination): 16 µg/mL
MIC ([1]; strain UH AB636, carbapenem resistant, ETX2514 at 4 mg/liter in combination): 16 µg/mL
MIC ([1]; strain UH AB660, carbapenem resistant, ETX2514 at 4 mg/liter in combination): 16 µg/mL
MIC ([1]; strain UH AB667, carbapenem resistant, ETX2514 at 4 mg/liter in combination): 32 µg/mL
MIC ([1]; strain VA-432, carbapenem resistant, ETX2514 at 4 mg/liter in combination): 16 µg/mL
MIC ([1]; strain VA-433, carbapenem resistant, ETX2514 at 4 mg/liter in combination): 16 µg/mL
MIC ([1]; strain VA-434, carbapenem resistant, ETX2514 at 4 mg/liter in combination): 16 µg/mL
MIC ([1]; strain VA-435, carbapenem resistant, ETX2514 at 4 mg/liter in combination): 16 µg/mL
MIC ([1]; strain VA-436, carbapenem resistant, ETX2514 at 4 mg/liter in combination): 16 µg/mL
MIC ([1]; strain VA-437, carbapenem resistant, ETX2514 at 4 mg/liter in combination): 8 µg/mL
MIC ([1]; strain VA-438, carbapenem resistant, ETX2514 at 4 mg/liter in combination): 8 µg/mL
MIC ([1]; strain VA-505, carbapenem resistant, ETX2514 at 4 mg/liter in combination): 8 µg/mL
MIC ([2]; ATCC 17978 ΔadeB/ΔadeJ): 1 µg/mL
MIC ([2]; ATCC 17978 ΔadeB): 1 µg/mL
MIC ([2]; ATCC 17978 ΔadeJ): 1 µg/mL
MIC (A. nosocomialis (M2); M2 WT): 2 µg/mL
MIC (A. nosocomialis (M2); M2 ΔadeB/ΔadeJ): 2 µg/mL
MIC (A. nosocomialis (M2); M2 ΔadeJ): 2 µg/mL
Log10 CFU/g (A. baumannii ARC5955 [3]): 9.0 log10 CFU/g
Change in log10 CFU/g (A. baumannii ARC5955 [3]): 2.5 log10 CFU/g
Change in log10 CFU/g (A. baumannii ARC5955 [3]; listed as sulbactam): > 2 log10 CFU/g
substrate quality for the enzyme (OXA-66 β-lactamase): very poor substrate
MIC90 (A. baumannii isolates): 64 µg/mL (≈ 274 µM)
MIC (A. baumannii ARC5955 [4]): 64 µg/mL (≈ 274 µM)
